Measured values published in patent EP0451772A1, “Piperidine compounds, method for preparation thereof, and a pharamceutical composition comprising the same” (HOKURIKU PHARMACEUTICAL CO., LTD., priority 1990, dated 1991).
Where a name gives a salt, the structure may show the parent alone. Read-outs that look alike come from different tables or passages of the source.

How the values were obtained:
[1] = test system: passive cutaneous anaphylaxis (PCA) in rats; test: 48 hr homologous passive cutaneous anaphylaxis (PCA) in rats; format: in vivo, Male Wistar rats; details: Rattus norvegicus, po, read-out: the percent inhibition of PCA in rats
Procedure: (§1) The results of 48 hr homologous passive cutaneous anaphylaxis (PCA) in rats with the monitoring of antiallergic activity and the results of potentiation of hexobarbital-induced anesthesia in mice with the monitoring of central nervous depressive activity are summarized in Table 1. The following compound was used as the reference compound. Reference compound : Ketotifen-Fumarate
Ascaris extract coupled with 2, 4-dinitrophenyl group (DNP-As) was prepared by the method of Koda et al. (Folia pharmacol. japon., 78, 319-334, 1981) and anti-DNP-As containing IgE antibody serum was prepared by the method of Tada and Okumura (J. Immunol., 106, 1019-1025, 1971). The PCA titer of the antiserum was estimated to be 1:128 by 48 hr PCA in rats.
Male Wistar rats weighing 160 to 200 g were sensitized passively by intradermal injection, in the back, of 0.05 ml of anti-DNP-As serum diluted 21-fold with saline. After 48 hr, the animals (18-20 hr fasted) were given iv. 0.5 ml of 1% Evans blue solution containing 1 mg of DNP-As. After an additional 30 min, the animals were killed by stunning and the skins were removed. The intensity of the response was evaluated by assaying the amount of dye leaked according to the method of Katayama et al. (Microbiol. Immunol., 22, 89-101, 1978). The percent inhibition of PCA was calculated using the following formula: [formula]
Test compounds were given orally in a dose of 1 mg/kg 1 hr prior to challenge with antigen. As a control, 5 ml/kg of vehicle (0.5 % CMC) alone were given in a similar manner.

[2] = test system: hexobarbital-induced anesthesia in mice; set-up: species or system male ddY mice; details: mouse, in vivo
Description: as §1
The loss of righting reflex induced by hexobarbital was used as an index of anesthesia. Groups of eight male ddY mice (20-24 hr fasted) weighing 19 to 27 g were treated orally with the test compounds (30 mg/kg) or vehicle. Thirty min later, 80 mg/kg of hexobarbital sodium were injected i.p. to the animals and the duration of loss of righting reflex was observed.

[3] = 1 mg/kg, p.o., 1 hr prior to challenge with antigen, amount of dye leaked

| SMILES | inhibition in vivo at 1 mg/kg [1, 3] [%] | the percent increase of hexobarbital-induced anesthesia in mice [2] [%] | inhibition in vivo at 1 mg/kg [1] [%] |
| --- | --- | --- | --- |
| O=C(O)CCN1CCC(=C2c3ccccc3Sc3ccccc32)CC1 [Example 18, 4-(9H-Thioxanthen-9-ylidene)-1-piperidinepropionic Acid] | 96 | 49 |  |
| Cl.O=C(O)CCCN1CCC(=C2c3ccccc3CC(=O)c3sccc32)CC1 [Example 6, 4-(4,9-Dihydro-10-oxo-10H-benzo[4,5]cyclohepta[1,2-b]thiophen-4-ylidene)-1-piperidinebutyric Acid Hydrochloride] | 77 | 26 |  |
| Cl.O=C(O)CCN1CCC(=C2c3ccccc3CC(=O)c3sccc32)CC1 [Example 5, 4-(4,9-Dihydro-10-oxo-10H-benzo[4,5]cyclohepta[1,2-b]thiophen-4-ylidene)-1-piperidinepropionic Acid Hydrochloride] | 75 | 24 |  |
| O=C(O)CCN1CCC(=C2c3ccccc3CSc3ccccc32)CC1 [Example 10, 4-(Dibenzo[b,e]thiepin-11(6H)-ylidene)-1-piperidinepropionic Acid Hydrochloride] | 69 | 19 |  |
| Cl.O=C(O)CCCCN1CCC(=C2c3ccccc3CC(=O)c3sccc32)CC1 [Example 8, 4-(4,9-Dihydro-10-oxo-10H-benzo[4,5]cyclohepta[1,2-b]thiophen-4-ylidene)-1-piperidinevaleric Acid Hydrochloride] | 71 | 27 |  |
| Cl.O=C(O)CCCCCN1CCC(=C2c3ccccc3CSc3ccccc32)CC1 [Example 15, 4-(Dibenzo[b,e]thiepin-11(6H)-ylidene)-1-piperidinecaproic Acid Hydrochloride] | 57 | 33 |  |
| Cl.O=C(O)CCCCN1CCC(=C2c3ccccc3CSc3ccccc32)CC1 [Example 14, 4-(Dibenzo[b,e]thiepin-11(6H)-ylidene)-1-piperidinevaleric Acid Hydrochloride] | 63 | 19 |  |
| CN1CCC(=C2c3ccccc3CC(=O)c3sccc32)CC1 [Reference compound, 4,9-dihydro-4-(1-methyl-4-piperidinylidene)-10H-benzo[4,5]cyclohepta[1,2-b]thiophen-10-one, reference compound] |  | 90 | 56 |
| O=C(O)CCCN1CCC(=C2c3ccccc3CSc3ccccc32)CC1 [Example 13, 4-(Dibenzo[b,e]thiepin-11(6H)-ylidene)-1-piperidinebutyric Acid Hydrochloride] | 58 | 30 |  |
